In ChEMBL document CHEMBL4007491, “Structure-based drug design of novel ASK1 inhibitors using an integrated lead optimization strategy” (Bioorg Med Chem Lett, 2017):
In brackets after ≈: the same amount, converted by molar mass.

Tests used:
[1] = target: T1, Ephrin type-A receptor 3 (Homo sapiens, UniProt P29320); assay: Inhibition of recombinant human His-tagged EPHA3 cytoplasmic domain (569 to 976 residues) expressed in baculovirus expression system
T1 sequence (P29320 whole entry): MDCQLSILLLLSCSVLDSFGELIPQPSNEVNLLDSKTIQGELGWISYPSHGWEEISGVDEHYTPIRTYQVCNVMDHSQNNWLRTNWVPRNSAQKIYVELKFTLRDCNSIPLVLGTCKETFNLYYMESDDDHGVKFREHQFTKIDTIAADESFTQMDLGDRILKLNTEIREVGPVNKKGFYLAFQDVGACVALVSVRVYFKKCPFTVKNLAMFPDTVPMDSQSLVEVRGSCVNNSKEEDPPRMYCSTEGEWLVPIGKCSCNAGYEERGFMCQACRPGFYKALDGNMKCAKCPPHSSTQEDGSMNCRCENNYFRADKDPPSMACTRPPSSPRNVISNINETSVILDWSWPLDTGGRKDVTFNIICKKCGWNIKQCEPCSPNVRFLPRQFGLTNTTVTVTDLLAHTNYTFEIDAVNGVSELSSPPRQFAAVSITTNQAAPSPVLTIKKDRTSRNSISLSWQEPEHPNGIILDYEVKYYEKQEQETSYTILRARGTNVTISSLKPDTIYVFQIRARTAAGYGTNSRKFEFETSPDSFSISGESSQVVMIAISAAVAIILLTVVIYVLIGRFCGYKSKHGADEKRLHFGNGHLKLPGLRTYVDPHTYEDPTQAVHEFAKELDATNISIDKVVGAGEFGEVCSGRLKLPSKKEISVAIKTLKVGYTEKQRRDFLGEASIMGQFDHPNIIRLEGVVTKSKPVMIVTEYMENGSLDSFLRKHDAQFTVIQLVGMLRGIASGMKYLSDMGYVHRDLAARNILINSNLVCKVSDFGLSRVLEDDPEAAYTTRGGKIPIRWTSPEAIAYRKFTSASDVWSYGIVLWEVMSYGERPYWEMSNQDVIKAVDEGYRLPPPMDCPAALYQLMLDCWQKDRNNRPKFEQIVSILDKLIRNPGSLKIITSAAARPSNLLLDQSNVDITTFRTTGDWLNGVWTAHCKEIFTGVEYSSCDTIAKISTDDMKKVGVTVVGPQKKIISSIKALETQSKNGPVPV

[2] = target: Epidermal growth factor receptor (Homo sapiens, UniProt P00533); assay: Inhibition of recombinant human GST-tagged EGFR cytoplasmic domain (668 to 1210 residues) expressed in baculovirus expression system
[3] = target: Macrophage-stimulating protein receptor (Homo sapiens, UniProt Q04912); assay: Inhibition of recombinant human GST-tagged RON cytoplasmic domain expressed in baculovirus expression system
[4] = target: 5'-AMP-activated protein kinase catalytic subunit alpha-1 (Homo sapiens, UniProt Q13131); assay: Inhibition of PRKAA1 (unknown origin)
[5] = target: Receptor tyrosine-protein kinase erbB-4 (Homo sapiens, UniProt Q15303); assay: Inhibition of recombinant human N-terminal GST-tagged ERBB4 cytoplasmic domain (708 to 993 residues) expressed in baculovirus expression system
[6] = target: T2, CYP1A2 (Homo sapiens, UniProt P05177); assay: Inhibition of CYP1A2 (unknown origin) at 10 uM relative to control; format: ADME
T2 sequence (P05177 whole entry): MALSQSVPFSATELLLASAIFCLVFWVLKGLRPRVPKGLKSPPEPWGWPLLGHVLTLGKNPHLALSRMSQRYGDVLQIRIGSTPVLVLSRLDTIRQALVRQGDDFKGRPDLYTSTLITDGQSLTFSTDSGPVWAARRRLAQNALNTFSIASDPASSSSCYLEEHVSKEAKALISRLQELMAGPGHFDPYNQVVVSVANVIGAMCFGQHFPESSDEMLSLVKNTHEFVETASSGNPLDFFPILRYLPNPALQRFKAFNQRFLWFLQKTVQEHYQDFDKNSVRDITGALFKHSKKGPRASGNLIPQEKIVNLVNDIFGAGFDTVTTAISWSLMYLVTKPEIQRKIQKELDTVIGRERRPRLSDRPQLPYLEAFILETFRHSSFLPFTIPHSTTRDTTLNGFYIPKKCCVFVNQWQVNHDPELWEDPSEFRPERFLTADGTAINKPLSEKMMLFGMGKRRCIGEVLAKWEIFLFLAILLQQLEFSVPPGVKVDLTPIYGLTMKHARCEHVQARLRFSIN

[7] = Intrinsic clearance in human liver microsomes; format: ADME, microsome; details: read-out: CLH
[8] = target: T3, Tyrosine-protein kinase ITK/TSK (Homo sapiens, UniProt Q08881); assay: Inhibition of recombinant full length human GST-tagged ITK expressed in baculovirus expression system
T3 sequence (Q08881 whole entry): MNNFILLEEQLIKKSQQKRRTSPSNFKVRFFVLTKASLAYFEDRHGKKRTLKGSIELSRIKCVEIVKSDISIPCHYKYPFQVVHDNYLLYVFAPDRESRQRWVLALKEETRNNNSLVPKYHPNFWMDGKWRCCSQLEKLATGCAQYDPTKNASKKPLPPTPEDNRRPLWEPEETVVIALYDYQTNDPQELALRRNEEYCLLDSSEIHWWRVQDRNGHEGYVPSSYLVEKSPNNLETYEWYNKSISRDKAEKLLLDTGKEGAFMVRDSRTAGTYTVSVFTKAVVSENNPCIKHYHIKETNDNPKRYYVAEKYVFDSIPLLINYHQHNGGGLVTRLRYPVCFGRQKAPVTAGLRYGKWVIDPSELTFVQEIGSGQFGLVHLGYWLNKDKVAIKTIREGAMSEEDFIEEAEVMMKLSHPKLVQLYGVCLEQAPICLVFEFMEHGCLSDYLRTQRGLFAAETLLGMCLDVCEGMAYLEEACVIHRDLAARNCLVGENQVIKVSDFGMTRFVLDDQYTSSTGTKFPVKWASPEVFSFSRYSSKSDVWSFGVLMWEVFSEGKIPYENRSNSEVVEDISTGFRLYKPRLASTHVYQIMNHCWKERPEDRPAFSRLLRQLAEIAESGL

[9] = target: CYP2C9 (Homo sapiens, UniProt P11712); assay: Inhibition of CYP2C9 (unknown origin) at 10 uM relative to control; format: ADME
[10] = target: Cyclin-dependent kinase 2 (Homo sapiens, UniProt P24941); assay: Inhibition of CDK2 (unknown origin)
[11] = Thermodynamic solubility of the compound in pH 6.8 solution; format: physicochemical; details: read-out: Therm_solubility

Sequence of Receptor tyrosine-protein kinase erbB-4 (Q15303 whole entry, the tested form may be a part): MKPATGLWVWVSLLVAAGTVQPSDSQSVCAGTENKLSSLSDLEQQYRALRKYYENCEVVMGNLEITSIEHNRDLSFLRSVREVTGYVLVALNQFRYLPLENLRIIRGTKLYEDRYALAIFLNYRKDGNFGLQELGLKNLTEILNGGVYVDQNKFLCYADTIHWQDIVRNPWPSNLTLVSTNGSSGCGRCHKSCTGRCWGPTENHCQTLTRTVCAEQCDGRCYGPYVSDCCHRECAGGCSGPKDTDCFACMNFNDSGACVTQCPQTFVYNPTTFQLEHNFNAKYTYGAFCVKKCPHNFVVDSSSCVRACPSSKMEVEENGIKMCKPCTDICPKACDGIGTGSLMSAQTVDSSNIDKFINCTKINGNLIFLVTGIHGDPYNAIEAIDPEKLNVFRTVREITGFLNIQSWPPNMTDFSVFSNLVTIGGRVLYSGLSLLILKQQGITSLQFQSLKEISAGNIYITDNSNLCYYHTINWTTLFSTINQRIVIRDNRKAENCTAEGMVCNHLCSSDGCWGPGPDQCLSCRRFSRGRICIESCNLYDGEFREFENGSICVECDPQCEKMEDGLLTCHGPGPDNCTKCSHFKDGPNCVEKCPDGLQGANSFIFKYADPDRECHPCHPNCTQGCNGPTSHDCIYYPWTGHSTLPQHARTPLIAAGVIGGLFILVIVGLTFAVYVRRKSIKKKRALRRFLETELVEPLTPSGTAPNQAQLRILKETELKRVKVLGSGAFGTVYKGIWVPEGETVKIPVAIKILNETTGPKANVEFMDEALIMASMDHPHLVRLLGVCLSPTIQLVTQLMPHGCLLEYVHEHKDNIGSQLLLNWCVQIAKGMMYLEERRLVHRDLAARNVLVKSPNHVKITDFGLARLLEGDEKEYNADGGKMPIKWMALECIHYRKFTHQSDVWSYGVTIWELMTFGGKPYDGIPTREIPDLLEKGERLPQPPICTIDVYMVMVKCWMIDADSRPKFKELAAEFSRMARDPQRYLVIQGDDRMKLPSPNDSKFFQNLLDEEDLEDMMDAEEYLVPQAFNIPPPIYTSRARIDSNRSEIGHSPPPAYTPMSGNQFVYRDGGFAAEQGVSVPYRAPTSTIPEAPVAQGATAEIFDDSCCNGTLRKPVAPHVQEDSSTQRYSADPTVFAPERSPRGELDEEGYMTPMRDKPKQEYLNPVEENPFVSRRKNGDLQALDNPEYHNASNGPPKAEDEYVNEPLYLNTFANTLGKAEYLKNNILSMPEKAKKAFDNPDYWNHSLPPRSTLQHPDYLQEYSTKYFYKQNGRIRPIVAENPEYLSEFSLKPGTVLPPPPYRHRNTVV
Sequence of Macrophage-stimulating protein receptor (Q04912 25-304 limits assumed): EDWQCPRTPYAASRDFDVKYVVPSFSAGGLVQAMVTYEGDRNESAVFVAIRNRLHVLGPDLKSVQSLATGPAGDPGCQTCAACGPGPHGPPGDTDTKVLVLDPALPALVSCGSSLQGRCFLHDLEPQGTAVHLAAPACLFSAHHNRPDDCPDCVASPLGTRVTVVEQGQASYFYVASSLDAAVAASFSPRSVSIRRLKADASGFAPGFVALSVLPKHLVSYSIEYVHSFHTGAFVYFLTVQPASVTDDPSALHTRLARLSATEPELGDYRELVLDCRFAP
Sequence of Macrophage-stimulating protein receptor (Q04912 310-1400 limits assumed): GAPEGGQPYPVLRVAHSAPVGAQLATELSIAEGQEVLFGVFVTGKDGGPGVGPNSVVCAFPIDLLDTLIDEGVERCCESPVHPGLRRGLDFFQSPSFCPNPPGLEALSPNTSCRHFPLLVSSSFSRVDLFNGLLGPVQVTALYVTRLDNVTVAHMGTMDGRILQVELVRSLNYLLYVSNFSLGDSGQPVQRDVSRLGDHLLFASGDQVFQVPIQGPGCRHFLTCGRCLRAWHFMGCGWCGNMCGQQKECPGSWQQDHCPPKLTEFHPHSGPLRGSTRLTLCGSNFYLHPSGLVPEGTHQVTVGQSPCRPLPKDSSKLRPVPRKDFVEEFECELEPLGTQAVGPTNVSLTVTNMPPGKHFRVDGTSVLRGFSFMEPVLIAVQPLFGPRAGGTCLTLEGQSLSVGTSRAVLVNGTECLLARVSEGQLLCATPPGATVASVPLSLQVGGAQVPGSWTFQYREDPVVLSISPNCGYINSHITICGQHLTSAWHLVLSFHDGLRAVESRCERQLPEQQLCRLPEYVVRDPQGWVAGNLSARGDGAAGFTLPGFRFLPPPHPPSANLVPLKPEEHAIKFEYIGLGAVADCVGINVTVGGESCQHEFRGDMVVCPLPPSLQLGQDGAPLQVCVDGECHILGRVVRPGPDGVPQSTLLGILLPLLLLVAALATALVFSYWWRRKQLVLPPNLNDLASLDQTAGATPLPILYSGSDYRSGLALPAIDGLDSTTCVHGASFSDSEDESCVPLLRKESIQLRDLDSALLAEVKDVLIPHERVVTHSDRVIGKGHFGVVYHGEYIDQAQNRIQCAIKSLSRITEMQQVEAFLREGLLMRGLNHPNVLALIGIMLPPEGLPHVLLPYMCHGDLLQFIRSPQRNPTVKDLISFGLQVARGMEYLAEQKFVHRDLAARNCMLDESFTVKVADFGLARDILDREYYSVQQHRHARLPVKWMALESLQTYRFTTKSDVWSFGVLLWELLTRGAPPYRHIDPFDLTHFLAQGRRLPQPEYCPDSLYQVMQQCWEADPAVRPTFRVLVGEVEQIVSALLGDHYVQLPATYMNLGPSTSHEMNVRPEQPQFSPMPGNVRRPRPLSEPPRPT
Sequence of CYP2C9 (P11712 whole entry): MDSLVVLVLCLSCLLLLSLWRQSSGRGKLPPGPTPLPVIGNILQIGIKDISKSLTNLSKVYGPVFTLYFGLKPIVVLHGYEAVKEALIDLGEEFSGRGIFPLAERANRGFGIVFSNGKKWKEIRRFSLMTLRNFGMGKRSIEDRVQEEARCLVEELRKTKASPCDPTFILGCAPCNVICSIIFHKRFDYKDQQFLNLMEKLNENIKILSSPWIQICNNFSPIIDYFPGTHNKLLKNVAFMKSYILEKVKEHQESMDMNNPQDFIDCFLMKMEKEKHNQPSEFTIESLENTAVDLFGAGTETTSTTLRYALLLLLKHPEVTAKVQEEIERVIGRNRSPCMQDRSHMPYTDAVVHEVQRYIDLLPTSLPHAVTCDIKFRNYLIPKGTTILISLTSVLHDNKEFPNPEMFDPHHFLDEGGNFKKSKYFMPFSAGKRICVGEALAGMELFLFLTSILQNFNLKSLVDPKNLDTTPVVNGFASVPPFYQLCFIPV
Sequence of 5'-AMP-activated protein kinase catalytic subunit alpha-1 (Q13131 whole entry, the tested form may be a part): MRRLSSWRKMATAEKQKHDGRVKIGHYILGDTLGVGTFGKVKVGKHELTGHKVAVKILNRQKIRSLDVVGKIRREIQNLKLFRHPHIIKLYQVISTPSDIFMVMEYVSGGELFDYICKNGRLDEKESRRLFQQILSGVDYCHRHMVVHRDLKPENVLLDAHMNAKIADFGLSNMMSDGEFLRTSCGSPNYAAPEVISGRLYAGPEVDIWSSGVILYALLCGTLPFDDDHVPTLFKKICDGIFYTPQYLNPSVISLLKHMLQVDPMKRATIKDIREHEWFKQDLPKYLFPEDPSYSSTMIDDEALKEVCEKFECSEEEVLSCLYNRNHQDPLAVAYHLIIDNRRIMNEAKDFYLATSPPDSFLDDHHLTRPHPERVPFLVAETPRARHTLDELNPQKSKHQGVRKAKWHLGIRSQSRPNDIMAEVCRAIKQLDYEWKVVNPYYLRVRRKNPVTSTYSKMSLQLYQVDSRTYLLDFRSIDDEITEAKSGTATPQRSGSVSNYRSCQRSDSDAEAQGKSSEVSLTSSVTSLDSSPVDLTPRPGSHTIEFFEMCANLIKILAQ
Sequence of Epidermal growth factor receptor (P00533 whole entry, the tested form may be a part): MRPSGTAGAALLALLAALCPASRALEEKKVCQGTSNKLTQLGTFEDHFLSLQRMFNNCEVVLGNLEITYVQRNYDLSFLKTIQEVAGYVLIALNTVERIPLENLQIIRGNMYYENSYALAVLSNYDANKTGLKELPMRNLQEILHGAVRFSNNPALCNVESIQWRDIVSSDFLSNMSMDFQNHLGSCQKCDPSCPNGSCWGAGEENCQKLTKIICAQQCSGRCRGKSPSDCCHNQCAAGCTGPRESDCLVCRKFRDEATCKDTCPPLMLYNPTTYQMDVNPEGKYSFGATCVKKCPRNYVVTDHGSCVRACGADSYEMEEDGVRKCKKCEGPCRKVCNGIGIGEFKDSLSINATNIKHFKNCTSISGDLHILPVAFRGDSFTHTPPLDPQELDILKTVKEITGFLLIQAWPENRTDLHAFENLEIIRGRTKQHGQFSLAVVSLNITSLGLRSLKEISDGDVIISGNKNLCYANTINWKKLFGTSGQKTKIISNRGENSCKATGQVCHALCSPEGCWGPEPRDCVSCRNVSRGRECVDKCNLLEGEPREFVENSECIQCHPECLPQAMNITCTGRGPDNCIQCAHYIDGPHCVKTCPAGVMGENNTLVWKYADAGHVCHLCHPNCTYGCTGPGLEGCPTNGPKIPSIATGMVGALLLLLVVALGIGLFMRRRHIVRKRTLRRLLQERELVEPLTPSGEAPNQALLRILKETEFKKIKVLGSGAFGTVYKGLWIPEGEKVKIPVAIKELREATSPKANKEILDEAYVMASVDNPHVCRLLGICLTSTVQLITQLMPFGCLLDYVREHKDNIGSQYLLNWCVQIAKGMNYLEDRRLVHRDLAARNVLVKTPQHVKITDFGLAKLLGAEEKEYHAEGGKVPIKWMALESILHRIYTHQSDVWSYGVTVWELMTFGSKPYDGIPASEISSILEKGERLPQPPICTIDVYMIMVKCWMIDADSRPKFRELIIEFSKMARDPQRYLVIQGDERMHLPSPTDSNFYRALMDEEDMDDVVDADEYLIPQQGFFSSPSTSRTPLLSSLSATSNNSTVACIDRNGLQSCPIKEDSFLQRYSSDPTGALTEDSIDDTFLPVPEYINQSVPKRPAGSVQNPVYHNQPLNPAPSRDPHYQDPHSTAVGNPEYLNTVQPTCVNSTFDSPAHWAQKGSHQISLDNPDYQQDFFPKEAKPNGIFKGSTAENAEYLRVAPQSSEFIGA

- IC50 [1]: > 20 µM
- IC50 [2]: > 20 µM
- IC50 [3]: > 20 µM
- IC50 [4]: 0.794 µM
- IC50 [5]: > 20 µM
- inhibition at 10 µM [6]: 8%
- CLint scaled [7]: 8.8 mL/min/kg
- IC50 [8]: > 20 µM
- inhibition at 10 µM [9]: 36%
- IC50 [10]: 1 µM
- solubility thermodynamic [11]: 208 µM (≈ 75.2 µg/mL)
Structure (SMILES): COCCn1cc(NC(=O)c2csc(-c3nncn3C(C)C)n2)cn1
